3 molecules from patent US5066580A, “Xanthene dyes that emit to the red of fluorescein” (priority 1990, dated 1991) can be followed below.

Like-named read-outs stand apart in the source and are kept apart here.

The conditions of series [1]: pH 7.
Series [2] concerns the target T1, pig liver esterase (E.C. 3.1.1.1) (Sus scrofa, UniProt Q29550).
T1 sequence (Q29550 19-566): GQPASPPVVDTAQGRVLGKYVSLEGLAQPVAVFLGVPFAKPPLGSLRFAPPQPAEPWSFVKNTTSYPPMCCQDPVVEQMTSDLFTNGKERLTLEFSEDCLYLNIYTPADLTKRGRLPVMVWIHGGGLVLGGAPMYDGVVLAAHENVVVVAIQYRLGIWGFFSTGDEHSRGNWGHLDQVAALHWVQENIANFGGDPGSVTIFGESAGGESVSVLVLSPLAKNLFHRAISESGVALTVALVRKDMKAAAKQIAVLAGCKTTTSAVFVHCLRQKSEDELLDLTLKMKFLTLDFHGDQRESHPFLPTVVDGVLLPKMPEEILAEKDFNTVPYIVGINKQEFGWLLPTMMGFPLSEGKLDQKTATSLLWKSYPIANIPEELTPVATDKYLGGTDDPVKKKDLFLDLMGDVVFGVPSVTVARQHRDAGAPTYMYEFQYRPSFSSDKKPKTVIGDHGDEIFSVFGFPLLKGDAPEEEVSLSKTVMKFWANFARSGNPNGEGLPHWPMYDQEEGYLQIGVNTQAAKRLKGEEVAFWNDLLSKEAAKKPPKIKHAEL
In words: Enzymatic hydrolysis by esterase (Km, Lineweaver-Burk). Type of series: biochemical.

The conditions of series [3]: not told.
A short description of series [4]: Membrane permeability of diacetates. The following applies: diacetate esters.
Series [5] in a line: Fluorescence emission maximum and quantum yield. Type of series: physicochemical. As for the experimental part:
Second, quantum yields of compounds 1-9 and 14 were measured. Solutions (1×10^-6 M) of compounds 1-9 were prepared in carbonate/ bicarbonate buffer (pH 9.5). Fluorescence emission spectra were measured on a Perkin-Elmer MPF-2A fluorescence spectrophotometer in 3-mL disposable plastic cuvettes. The excitation wavelength was set 30 nm to the red of the maximum excitation wavelength and the emission spectra measured. The area under the emission spectrum was measured (F). The quantum yield (.PHI.) was determined using the following equation, F-kIo .PHI.εcb, where F is the fluorescence, k is a fluorimeter constant, Io is the light intensity at the exciting wavelength, ε is the extinction coefficient at the exciting wavelength, c is the concentration of the dye, and b is the pathlength of the cuvette. The value of k was determined for three different emission wavelength regions by using literature values of .PHI. and measuring the fluorescence of fluorescein (470-670 nm, .PHI.=0.92), eosin (500-700 nm, .PHI.=0.19) and allophycocyanin (Applied BioSystems, 600-800 nm, .PHI.=0.68). The value of Io was determined from a table that was generated by scanning the range of exciting wavelengths on the fluorescence spectrophotometer with the emission monochrometer open; a piece of white paper was placed in the sample holder to reflect the exciting light. The concentration of the dyes were 0.6-1.0 uM; this value in each case was below the concentration ([…]) required in order for the equation to be valid.
(§1) Finally, the spectral characteristics of compounds 1-9 was determined. The extinction coefficients and quantum yields or compounds 1-9 were determined at pH 9.5. The extinction coefficient and quantum yield of monoprotonated Vita Blue was also determined at pH 5.2. The extinction coefficient and the quantum yield of VBDB were determined at pH 7.2.

The nature of series [6]: Absorbance maximum and extinction coefficient. Particulars: for ε (extinction coefficient): pH 7.2, at 480 nm. Type of series: physicochemical. As to the method:
First, the extinction coefficient of compounds 1-9 and 14 was determined. Stock solutions (5×10^-3 M) of each dye were made by dissolving the dye in two equivalents of 0.1 N NaOH and making up the volume with carbonate/bicarbonate buffer (0.16, 0.34 M, pH 9.5). The solution was diluted ([…]) in additional buffer (final pH 9.5-10) and the absorbance spectrum measured. A stock solution (1.2×10^-3 M) of Vita Blue was prepared in DMSO, diluted into citrate buffer (0.1 M, pH 5 2) to give a final concentration of 1.6×10^-5 M and the absorbance spectrum measured. A stock solution (8.2×10^-3 M) of VBDB was prepared in DMSO and diluted into pyrophosphate buffer (0.1 M, pH 7.2) to give a final concentration of 8.1×10^-5 M and the absorbance spectrum measured on a Beckman model DU-6UV visible spectrophotometer.
as §1

A short description of a further series: Stability in water. The following applies: pH 7.
A further series relates to human white blood cells. In words: Staining of lysed whole blood, fluorescence by flow cytometry. Type of series: cell-based. As to the method:
(§2) After characterizing the various xanthene dyes prepared in accordance with this invention, one of the dyes (VBDB) was used to stain cells. The ability of VBDB to stain cells was compared with BCECF-AM, a membrane permeable esterase substrate (Molecular Probes) and fluorescein diacetate (FDA). […] After incubation, the tube was centrifuged. This procedure specifically lyses red blood cells leaving the white cells intact and viable. The supernatant was removed and the white blood cells which remained were washed twice and resuspended in blood cell diluent (1 mL, Diagnostic Technology, Inc.). The cell concentration and the percentage of dead cells were ascertained by counting the cells manually using a fluorescent microscope and a hemacytometer; acridine orange and ethidium bromide were used to stain live and dead cells respectively.
(§3) Four samples of approximately 1.7×10^6 cells then were placed in polystyrene tubes. To each tube was added one of the following solutions (1 mL): FDA (1 uM) BCECF-AM (1 uM), VBDB (0.8 uM), or VBDB (8.0 uM). The dye solutions were prepared by diluting a stock solution of each dye (1-8 mM in DMSO) into blood cell diluent. The tubes were kept at room temperature for 30 minutes. The samples were washed three times and resuspended in blood cell diluent (1 mL).
(§4) A bandpass 530/30 emission filter was used for both FDA and BCECF-AM, while a bandpass 660/20 emission filter was used for VBDB. Data from 10,000 events were acquired from each of these samples immediately after staining, one hour after staining, and two hours after staining.
(§5) Referring to FIG. 2, VBDB, BCECF-AM and FDA were compared as vital dyes by staining lysed whole blood and examining the fluorescence by flow cytometry. […] Four samples of cells were incubated with BCECF AM (1 uM), FDA (1 uM) and VBDB (0.8 uM, 8.0 uM). The cells were analyzed immediately after staining (t=0), after one hour (t=1) and after two hours (t=2).
(§6) The data in FIG. 2 also was used to quantitate the "live" cells and the "dead" cells. […] It was assumed the live cells were those cells which retained the dye (the right peak) and that dead cells were those cells whose membranes had become leaky (the left peak). By setting the gate to the immediate left of the main peak, the "dead" cells to the left of the gate were counted.
For orientation: Flow cytometry measures light scatter and fluorescence of single cells or particles in a stream.

Experiment in series [7]: as above
Type of series: cell-based, human. Particulars: human, white blood cells. As to the method: as §2, §3, §4, §5, §6

As for “Sulfonefluorescein diacetate [Diacetate ester of compound 2]”, in series [1], the stability in water entry is given as “relatively stable in water at pH 7”. The esterase substrate result in series [2] is “esterase substrates”. For the same molecule, the membrane permeability result in [3] was “neither diacetates were membrane permeable”.

For the molecule `CC(=O)Oc1ccc2c3c(ccc2c1)C1(OS(=O)(=O)c2ccccc21)c1ccc2cc(OC(C)=O)ccc2c1O3` [Diacetate ester of compound 9, Vita Blue diacetate], the esterase substrate entry in series [2] is recorded as “esterase substrates”. In series [4], the membrane permeability entry is on record as “neither diacetates were membrane permeable”.

Regarding `CCCC(=O)Oc1ccc2c3c(ccc2c1)C1(OS(=O)(=O)c2ccccc21)c1ccc2cc(OC(=O)CCC)ccc2c1O3` [Compound 14, Vita Blue dibutyrate], the excitation maximum in [5] was found to be 480 nm. Besides, the “EM Max” value in [5] (pH 7.2) was 552 nm; in [5] (pH 7.2, listed as dibutyrate derivative of compound 9), 550 nm. In [5] (pH 7.2), the “Quantum Yield” value was 0.03. The esterase substrate result in series [2] was “good substrate”. Moreover, in series [2] (pH 8.0), the specific activity was 2.5 (ug substrate) (min)^-1 (mg enzyme)^-1. Besides, the “Abs Max” value in series [6] (pH 7.2) was 480 nm. Also, the “ε (extinction coefficient)” value in series [6] and in series [6] (listed as dibutyrate derivative of compound 9) was 5900 M⁻¹ cm⁻¹ in each case. Further, the stability in water result in the series “Stability in water” was “relatively stable in water at pH 7”. Also, the “retention of initial fluorescence by stained cells over time” value is “maintained their initial fluorescence” in the series with human white blood cells (0.8 uM dye) and “actually increased their fluorescence slightly after one hour” with human white blood cells (8 uM dye, after one hour). In addition, the “coefficient of variation (CV) in the fluorescence histogram” value came out at 39% with human white blood cells (0.8 uM, t=0); 43% in the series with human white blood cells (0.8 uM, t=1 h); 46% with human white blood cells (0.8 uM, t=2 h); 30% in the series with human white blood cells (8 uM, t=0); 35% in the series on human white blood cells (8 uM, t=1 h); 34% in the series on human white blood cells (8 uM, t=2 h). The “number of leaky cells, comparison of BCECF and VBDB” value in the series with human white blood cells (after two hours, higher VBDB concentration) is reported as “the same number of "leaky" cells after two hours”. Further, in the series on human white blood cells (higher concentration (8 uM)), the “deleterious effect on cells” value was “did not seem to be deleterious to the cells”. The percentage of dead (leaky) cells at 0 h, 0.8 µM in series [7] (0.8 uM, t=0) amounted to 14%. The same molecule gave a percentage of dead (leaky) cells at 1 h, 0.8 µM in series [7] (0.8 uM, t=1 h) of 18%. For the same molecule, the percentage of dead (leaky) cells at 2 h, 0.8 µM in series [7] (0.8 uM, t=2 h) was 20%. The molecule further returned a percentage of dead (leaky) cells at 8 µM in [7] (8 uM, second value, printed t=2) of 17%. The molecule also yielded a percentage of dead (leaky) cells at 0 h, 8 µM in series [7] (8 uM, t=0) of 12%. The percentage of dead (leaky) cells at 2 h, 8 µM in series [7] (8 uM, t=2 h) was 22%.
